Reference: a melting point compilation (Tetko et al.)

Details: a range is the spread between reports

Structure (SMILES)	melting point
O=C(O)c1ccc([N+](=O)[O-])c([N+](=O)[O-])c1	165 to 166 °C
COc1ccc(C=Nc2ccccc2)cc1	61 to 65 °C
O=C(O)c1c(F)cccc1F	158 to 159 °C
CCCc1ccc(C)cc1	-64 to -63.6 °C
Fc1c(F)c(F)c(C(F)(F)F)c(F)c1F	-66 to -65.6 °C
Oc1ccc2cc(O)ccc2c1	220 to 224 °C
CC(=O)c1ccc(Cl)c(Cl)c1	73 to 76 °C
COC(=O)c1ccccc1N	24 to 24.5 °C
Cc1nc2ccccc2[nH]1	176 °C
Cc1ncc([N+](=O)[O-])n1C	137 to 140 °C
CC(C)(C)C1CCC(=O)CC1	48.5 to 49 °C
CCOCOCC	-66.5 to -66 °C
CCCCCCOC(C)=O	-80.9 to -80 °C
OC1CCCCC1	21 to 25.9 °C
COCCOC(C)=O	-65.1 to -65 °C
CC[Si](Cl)(Cl)CC	-97 to -96.5 °C
CCOc1cccc(C(=O)O)c1	136 to 137 °C
Nc1ccc([N+](=O)[O-])cc1N	199 to 201 °C
S=C=S	-112 °C
Oc1ccc(O)c(-c2ccccc2)c1	101 to 102 °C
Clc1cc(Cl)cc(Cl)c1	63.4 to 65 °C
C1CC1	-128 to -127 °C
Cc1ccc(C(N)=O)cc1	159 to 163 °C
Clc1ccc(Cl)c(Br)c1	34 to 35 °C
CCCCCCCI	-48.2 to -48 °C

Structure (SMILES)	melting point
Clc1ccc2ccccc2n1	36 to 38 °C
CCCCC#N	-96.2 to -96 °C
O=C(Cl)c1ccccc1F	4 to 5 °C
Nc1ncc2ncn(COCCO)c2n1	188 to 189 °C
BrCCCCCCCCBr	15.5 to 16 °C
ClCCCCCCl	-73 to -72 °C
Clc1ccccc1I	0.7 to 1 °C
CCOC(=O)CCl	-26 to -21 °C
O=C(Oc1ccc([N+](=O)[O-])cc1)c1ccccc1	139 to 143 °C
COc1ccc(OC)c(C)c1	15 to 20 °C
CC(C)CBr	-119 to -117 °C
OCC(O)c1ccccc1 (stereo not drawn)	67 to 68 °C
COc1ccccc1OCC(O)CO (stereo not drawn)	78.5 to 81 °C
Cc1cc(Cl)ccc1OC(C)C(=O)O (stereo not drawn)	94 to 95 °C
Clc1ncccn1	66 to 67 °C
CC(C)C(=O)O	-47 to -46 °C
C1=CC2CCC1C2	45 to 46 °C
C=CCBr	-119 °C
CCC(C)(CO)CO	40.3 to 44 °C
CC(Cl)(Cl)Cl	-33 to -30 °C
CCCCC1C(=O)N(c2ccccc2)N(c2ccccc2)C1=O	105 to 107 °C
CCN(CC)c1ccc(Br)cc1	34 to 38 °C
Cc1c(C)c(C)c(Br)c(C)c1C	162 to 165 °C
N#Cc1ccc(-c2ccc(C#N)cc2)cc1	234 to 238 °C
OCC(O)C1OC2OC(C(Cl)(Cl)Cl)OC2C1O (stereo not drawn)	183 to 187 °C

Structure (SMILES)	melting point
Cc1cccnc1N	31 to 33.5 °C
CCOCCOCCO	-80 to -76 °C
C/C=C/c1ccccc1	-29.3 to -27.1 °C
C1CCSC1	-96.1 to -96 °C
CCCC=O	-99 to -96 °C
O=CC1CCCCC1	34.5 to 35 °C
CC12CCC3C(CCC4(C)CC5(CCC34C)OCCO5)C1CCC2=O (stereo not drawn)	158 to 159 °C
CCn1ccc(NS(=O)(=O)c2ccc(N)cc2)nc1=O	166 to 167 °C
Nc1ccc(/C=C/c2ccc([N+](=O)[O-])cc2)c([N+](=O)[O-])c1	198 to 202 °C
N#CCCC(Br)(C#N)CBr (stereo not drawn)	50 to 52 °C
O=C(O)C(c1ccccc1)c1ccccc1	146 to 147 °C
Oc1cc(Cl)ccc1Oc1ccc(Cl)cc1Cl	55.6 to 57 °C
Cc1cc2nc[nH]c2cc1C	204 to 206 °C
CCOC(=O)C(=O)Nc1ccccc1	65.5 to 67 °C
N#Cc1ccccc1Br	55 to 55.5 °C
N#Cc1cccc2ccccc12	36 to 37.5 °C
ClC(Br)Br	-22 to -20 °C
CCCCCCCCCCCCCCCCCC(=O)OC[C@@H](O)[C@H]1OC[C@H](O)[C@H]1O	55 to 57 °C
CCCCCCC(C)CC (stereo not drawn)	-85 to -84.8 °C
Oc1ccc(I)cc1	92 to 94 °C
CC(=O)Nc1cccc(C(F)(F)F)c1	104 to 105 °C
CC1CC1(C)C (stereo not drawn)	-138 °C
CCC(C)C(C)(C)CC (stereo not drawn)	-101 °C
CCNc1ccccc1	-64 to -63 °C
COc1ccccc1CC#N	66 to 69.8 °C

Structure (SMILES)	melting point
O=C1OCc2c(Cl)c(Cl)c(Cl)c(Cl)c21	208 to 210 °C
COC(=O)c1ccc(OC)c(OC)c1	59 to 60.8 °C
CCC1CCCC1C (stereo not drawn)	-106 °C
CCC(C)(C)C(C)(C)C	-10 to -9.8 °C
ON=C1CCCC1	56 to 57.8 °C
CN(C)c1ccc(Cc2ccc(N(C)C)cc2)cc1	87 to 91.5 °C
N#Cc1cccc(C(F)(F)F)c1	14.5 to 16 °C
Cc1cc(C)c(C)c(C)c1C	54 to 54.5 °C
O=C1CCC(=O)O1	119 to 120 °C
O[Si](c1ccccc1)(c1ccccc1)c1ccccc1	152 to 155 °C
C=C(C)C	-140 °C
COc1ccc(C(=O)c2ccccc2)cc1	61.5 to 62 °C
CCCCCCCCCCCCCCCCCC(C)=O	55 to 57 °C
CC(=O)O	16.6 to 17 °C
Nc1cc([N+](=O)[O-])ccc1O	143 to 144 °C
Cc1ccc2oc(=O)ccc2c1	76 to 76.5 °C
O=C1CSC(=O)N1	125 to 128 °C
O=C(O)Cc1cccc(O)c1	130 to 132 °C
Oc1cc(O)c(Cl)cc1Cl	113 to 115 °C
CCC1=CCCC1	-118 °C
Cc1ccccc1C(=O)O	104 to 108 °C
Nc1ccc(C(=O)O)cc1	188 to 189 °C
CC(C)(C)c1cccc(C(C)(C)C)n1	2 to 2.2 °C
O=C1CC[C@@H](C(=O)O)N1	160 to 162 °C
CC(C)CCCl	-104 °C

Structure (SMILES)	melting point
OCc1cccnc1	-7 to -6.5 °C
CCCCCC#N	-80.3 to -80 °C
CC(C)(C)C(=O)O	33 to 36 °C
CCOc1ccc([N+](=O)[O-])cc1	58 to 60 °C
CCS	-148 °C
CCCCCCCCCCCCCCCC(=O)OC(C)C	12 to 13.5 °C
CCCCCCC(O)C(=O)O (stereo not drawn)	69 to 70 °C
COc1ccc(C#N)cc1	59 to 61.5 °C
O=C(C=CC=Cc1ccc2c(c1)OCO2)N1CCCCC1	131 to 132 °C
N#CCc1ccccc1[N+](=O)[O-]	82 to 84 °C
OCCOCCOCCO	-7 to -4 °C
O=Cc1ccc(Cl)c(Cl)c1	43 to 44 °C
CCCC#CC(=O)O	25 to 27 °C
C=CC(=C)C	-146 °C
COc1ccc(CC#N)cc1OC	62.8 to 64 °C
O=c1cccccc1O	50.8 to 53 °C
CCCCP(=O)(CCCC)CCCC	64 to 67 °C
CC(F)(F)Cl	-131 °C
Ic1ccc(I)s1	41 to 41.5 °C
C1CO1	-112 to -111 °C
O=C(c1ccccc1)c1cccc(C(F)(F)F)c1	52 to 52.5 °C
BrC(c1ccccc1)(c1ccccc1)c1ccccc1	153 to 154 °C
CC(=O)Oc1cccc2ccccc12	44.5 to 45 °C
CC1=C(C)CCCC1	-84.1 to -84 °C
Nc1cccc2ncccc12	108 to 110 °C

Structure (SMILES)	melting point
O=C(C(F)(F)F)C(F)(F)F	-129 to -125 °C
CC(Br)CCCBr (stereo not drawn)	-34.4 to -34 °C
CN(C=O)c1ccccc1	11 to 14.5 °C
Cc1ccc2c(c1[N+](=O)[O-])C(=O)c1ccccc1C2=O	268 to 270 °C
CCCCCCCCCCCCCCCCCC(=O)O	68 to 71 °C
CCCCNC(N)=O	95 to 97 °C
OCCCCO	16 to 20.4 °C
Oc1ccc2ccccc2c1	122 to 123 °C
Cn1c(=O)ccc2ccccc21	74 to 75 °C
CC(Oc1cccc(Cl)c1)C(=O)O (stereo not drawn)	113 to 115 °C
O=C(OC(=O)C(F)(F)F)C(F)(F)F	-65 to -63 °C
COc1cc(Cl)cc(Cl)c1	40 to 41 °C
c1ccc(C(c2ccccc2)c2ccccc2)cc1	93 to 94 °C
O=Cc1cc(Cl)cc(Cl)c1	63 to 68 °C
Cc1ccnc2ccccc12	9.5 to 10 °C
Cc1ccc(O)cc1Cl	52 to 55.5 °C
Cc1ccc(CC(=O)O)cc1	92 to 93 °C
O=C(O)Cc1c(Cl)ccc(Cl)c1Cl	156 to 161 °C
CC(N)=O	79 to 81 °C
O=C(O)c1ccccc1Nc1ccccc1	184 to 187 °C
O=C(c1ccccc1)c1ccc(C(F)(F)F)cc1	115 to 118 °C
CC(C)C(C)(C)C(C)C	-102 °C
C#CCCC(C)C	-125 to -124 °C
O=[N+]([O-])NC1=NCCN1Cc1ccc(Cl)nc1	140 to 144 °C
O=C(O)Cc1ccc(C(F)(F)F)cc1	80 to 84 °C

Structure (SMILES)	melting point
CC(C)(c1ccc(O)cc1)c1ccc(O)cc1	153 to 156 °C
COC(=O)c1ccc(C)cc1	33.2 to 37 °C
c1ccc2cc3ccccc3cc2c1	215 to 218 °C
O=C(O)CBr	47 to 50 °C
Oc1ccc(Cl)cc1Cl	42 to 45 °C
O=C(O)c1cc(F)c(F)cc1F	98 to 100 °C
O=[N+]([O-])c1cccc([N+](=O)[O-])c1Cl	86 to 88 °C
Sc1nc2ccccc2s1	179 to 181 °C
C=CCCCCCCCCCCCC	-13 to -12 °C
Cc1c(Cl)cccc1[N+](=O)[O-]	36 to 37.8 °C
CC(C)Nc1ccc(Nc2ccccc2)cc1	74 to 77 °C
Cc1ccccc1C(N)=O	142 to 147 °C
OCc1cc(Br)ccc1O	109 to 113 °C
CCOC(=O)NCCOc1ccc(Oc2ccccc2)cc1	53 to 53.5 °C
NC(=O)c1c(F)c(F)c(F)c(F)c1F	147 to 148 °C
OCC(F)F	-28.2 to -28 °C
N#CSCSC#N	105 to 106 °C
Cc1cnc2ccccc2c1	15 to 16.5 °C
Cc1ccc(C)cc1	12 to 13.2 °C
CCCCCCCCCC(C)=O	12 to 15 °C
C=CC=C	-113 to -109 °C
OCc1cccc(Oc2ccccc2)c1	6 to 10 °C
c1ccc(-c2nnc(-c3ccccn3)nc2-c2ccccc2)cc1	191 to 192 °C
